Measured values taken from US10738028B2, “Spiro three-membered ring, spiro five-membered ring peptide deformylase inhibitor and use thereof in antibacteria and anti-tumor” (priority 2016, dated 2020).

Legend:
Format in all cases: cell-based
[1] = system: HCT-116 colorectal cancer cell line; assay: CCK-8 proliferation inhibition; details: Homo sapiens, HCT-116, 72 h, concentration of 30 μM; 72 hours; CCK-8; read-out: HCT116 inhibition rate/%
In short: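 HCT-116 cells, seeded at 2000 cells/well in McCoy's 5A with 10% newborn bovine serum, were cultured overnight at 37° C., 5% CO2, then exposed to compound dilutions in medium for 72 hours. Viability was read with 1:10 diluted CCK-8; controls received 1‰ DMSO.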

[2] = system: methicillin-resistant Staphylococcus aureus (MRSA); assay: MIC, two-fold agar dilution (CLSI), clinical isolates
In short: (§1)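 Test samples were assayed by the CLSI-recommended two-fold agar dilution method, and the minimum inhibitory concentration against each tested strain was determined.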

[3] = system: methicillin-sensitive Staphylococcus epidermidis (MSSE); assay: as above
In short: as §1

[4] = system: Escherichia coli (including ESBLs, non-ESBLs); assay: as above
In short: as §1

[5] = system: Moraxella catarrhalis (BCA); assay: as above
In short: as §1

[6] = system: methicillin-resistant Staphylococcus epidermidis (MRSE); assay: as above
In short: as §1

[7] = system: Enterococcus faecalis (EFA); assay: as above
In short: as §1

[8] = system: Streptococcus pneoumoniae (SPN); assay: as above
In short: as §1

[9] = system: methicillin-sensitive Staphylococcus aureus (MSSA); assay: as above
In short: as §1

[10] = system: Enterococcus faecium (EFM); assay: as above
In short: as §1

For `CCCC[C@H](CC(=O)NO)C(=O)N1CC2(CC2)C[C@H]1C(=O)Nc1cnn(CCN(C)C)c1` [Example 52, (S)—N-(1-(2-(dimethylamino)ethyl)-1H-pyrazol-4-yl)-5-((R)-2-(2-(hydroxyamino)-2-oxoethyl)hexanoyl)-5-spiro[2.4]heptane-6-carboxamide], the inhibition at 30 µM [1] was -1%, the Anti-bacterial activity (MIC), strain MRSA 15-1 ([2]; clinical isolate MRSA 15-1) was over 32 mg/L and the Anti-bacterial activity (MIC), strain MRSA 15-2 ([2]; clinical isolate MRSA 15-2) was over 32 mg/L. It also gave an Anti-bacterial activity (MIC), strain MRSA 15-3 ([2]; clinical isolate MRSA 15-3) of over 32 mg/L, an Anti-bacterial activity (MIC), strain MRSA 15-4 ([2]; clinical isolate MRSA 15-4) of over 32 mg/L and an Anti-bacterial activity (MIC), strain MSSE 15-3 ([3]; clinical isolate MSSE 15-3) of over 32 mg/L. The Anti-bacterial activity (MIC), strain MSSE 15-4 ([3]; clinical isolate MSSE 15-4) was over 32 mg/L, the Anti-bacterial activity (MIC), strain MSSE 15-5 ([3]; clinical isolate MSSE 15-5) was over 32 mg/L and the Anti-bacterial activity (MIC), strain MSSE 15-6 ([3]; clinical isolate MSSE 15-6) was over 32 mg/L. It also gave an Anti-bacterial activity (MIC), strain ECO+ 15-1 ([4]; clinical isolate ECO+ 15-1) of over 32 mg/L, an Anti-bacterial activity (MIC), strain ECO+ 15-2 ([4]; clinical isolate ECO+ 15-2) of over 32 mg/L and an Anti-bacterial activity (MIC), strain ECO+ 15-3 ([4]; clinical isolate ECO+ 15-3) of over 32 mg/L. The Anti-bacterial activity (MIC), strain ECO+ 15-4 ([4]; clinical isolate ECO+ 15-4) was over 32 mg/L, the Anti-bacterial activity (MIC), strain ECO− 15-1 ([4]; clinical isolate ECO− 15-1) was over 32 mg/L and the Anti-bacterial activity (MIC), strain ECO− 15-2 ([4]; clinical isolate ECO− 15-2) was over 32 mg/L. For the same molecule, the Anti-bacterial activity (MIC), strain ECO− 15-3 ([4]; clinical isolate ECO− 15-3) was over 32 mg/L, the Anti-bacterial activity (MIC), strain ECO− 15-4 ([4]; clinical isolate ECO− 15-4) was over 32 mg/L and the Anti-bacterial activity (MIC), strain BCA 14-1 ([5]; clinical isolate BCA 14-1) was over 32 mg/L. It also gave an Anti-bacterial activity (MIC), strain BCA 14-4 ([5]; clinical isolate BCA 14-4) of over 32 mg/L, an Anti-bacterial activity (MIC), strain BCA 14-5 ([5]; clinical isolate BCA 14-5) of over 32 mg/L and an Anti-bacterial activity (MIC), strain BCA 14-6 ([5]; clinical isolate BCA 14-6) of over 32 mg/L. The Anti-bacterial activity (MIC), strain BCA 14-7 ([5]; clinical isolate BCA 14-7) was over 32 mg/L, the Anti-bacterial activity (MIC), strain BCA 14-8 ([5]; clinical isolate BCA 14-8) was over 32 mg/L and the Anti-bacterial activity (MIC), strain BCA 14-10 ([5]; clinical isolate BCA 14-10) was over 32 mg/L. For the same molecule, the Anti-bacterial activity (MIC), strain MRSE 15-1 ([6]; clinical isolate MRSE 15-1) was over 32 mg/L, the Anti-bacterial activity (MIC), strain MRSE 15-2 ([6]; clinical isolate MRSE 15-2) was over 32 mg/L and the Anti-bacterial activity (MIC), strain MRSE 15-3 ([6]; clinical isolate MRSE 15-3) was over 32 mg/L. The Anti-bacterial activity (MIC), strain MRSE 15-7 ([6]; clinical isolate MRSE 15-7) was over 32 mg/L, the Anti-bacterial activity (MIC), strain EFA 15-1 ([7]; clinical isolate EFA 15-1) was over 32 mg/L and the Anti-bacterial activity (MIC), strain EFA 15-2 ([7]; clinical isolate EFA 15-2) was over 32 mg/L. The Anti-bacterial activity (MIC), strain EFA 15-3 ([7]; clinical isolate EFA 15-3) was over 32 mg/L, the Anti-bacterial activity (MIC), strain EFA 15-4 ([7]; clinical isolate EFA 15-4) was over 32 mg/L and the Anti-bacterial activity (MIC), strain EFA 15-5 ([7]; clinical isolate EFA 15-5) was over 32 mg/L. It also gave an Anti-bacterial activity (MIC), strain EFA 15-6 ([7]; clinical isolate EFA 15-6) of over 32 mg/L, an Anti-bacterial activity (MIC), strain EFA 15-9 ([7]; clinical isolate EFA 15-9) of over 32 mg/L and an Anti-bacterial activity (MIC), strain SPN 16-2 ([8]; clinical isolate SPN 16-2) of 8 mg/L. For the same molecule, the Anti-bacterial activity (MIC), strain SPN 16-4 ([8]; clinical isolate SPN 16-4) was 8 mg/L, the Anti-bacterial activity (MIC), strain MSSA 15-3 ([9]; clinical isolate MSSA 15-3) was over 32 mg/L and the Anti-bacterial activity (MIC), strain MSSA 15-4 ([9]; clinical isolate MSSA 15-4) was over 32 mg/L. It also gave an Anti-bacterial activity (MIC), strain MSSA 15-5 ([9]; clinical isolate MSSA 15-5) of over 32 mg/L, an Anti-bacterial activity (MIC), strain MSSA 15-6 ([9]; clinical isolate MSSA 15-6) of over 32 mg/L and an Anti-bacterial activity (MIC), strain EFM 15-1 ([10]; clinical isolate EFM 15-1) of over 32 mg/L. It also gave an Anti-bacterial activity (MIC), strain EFM 15-2 ([10]; clinical isolate EFM 15-2) of over 32 mg/L, an Anti-bacterial activity (MIC), strain EFM 15-3 ([10]; clinical isolate EFM 15-3) of over 32 mg/L and an Anti-bacterial activity (MIC), strain EFM 15-4 ([10]; clinical isolate EFM 15-4) of over 32 mg/L. The Anti-bacterial activity (MIC), strain EFM 15-5 ([10]; clinical isolate EFM 15-5) was 16 mg/L and the Anti-bacterial activity (MIC), strain EFM 15-6 ([10]; clinical isolate EFM 15-6) was 16 mg/L.
